{"source": "patent US20190169562A1", "about": "“SCREENING OF IMMUNO-MODULATORY THERAPIES” (zPredicta, Inc., priority 2016, published 2019)", "system": "malignant plasma cells", "assay": "bone marrow aspirates from multiple myeloma patients cultured in r-Bone and treated with pomalidomide", "type": "cell-based, human", "settings": "patient bone marrow (n=10) in r-Bone, FIG. 4", "protocol": "This example tested bone marrow aspirated from patients with multiple myeloma (n=10) were cultured in r-Bone system and treated with pomalidomide."}
{"compound": "Nc1cccc2c1C(=O)N(C1CCC(=O)NC1=O)C2=O", "note": "(stereo not shown) [pomalidomide, Pomalidomide]", "values": [{"measurement": "elimination of malignant plasma cells", "value": "eliminated malignant plasma cells in a dose dependent manner"}]}
